Source: PubChem BioAssay AID328 (DTP/NCI, 2004)
Where “and” joins values, the source holds several entries; their conditions need not be identical. Equal entries are not always repeated. Inconclusive results and toxic doses are left out.

System: BDF1 mice, P388 leukemia ip, median survival T/C
Test: NCI In Vivo Anticancer Drug Screen. Data for tumor model P388 Leukemia (intraperitoneal) in B6D2F1 (BDF1) mice
Details: endpoint: median survival time, higher = longer survival
Summary of the method: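 In tumour-bearing mice, survival after compound treatment is set against the vehicle group and given as a quotient.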

With `CC(=O)O[C@H]1CC[C@H]2[C@@H]3CC[C@H]4CC=C(C#N)C[C@]4(C)[C@H]3CC[C@]12C` as the compound, how does the T/C (dose: 0.75 mg/kg/injection, schedule: Q01DX009 (ip), vehicle: Klucel (hydroxypropylcellulose) (HPC)) read?
Its T/C is 95 % of control.

And the T/C (dose: 1.5 mg/kg/injection, schedule: Q01DX009 (ip), vehicle: Klucel (hydroxypropylcellulose) (HPC))?
Its T/C is 92 % of control and 100 % of control.

And the T/C (dose: 3.0 mg/kg/injection, schedule: Q01DX009 (ip), vehicle: Klucel (hydroxypropylcellulose) (HPC))?
Its T/C is 104 % of control.

What about the T/C (dose: 6.0 mg/kg/injection, schedule: Q01DX009 (ip), vehicle: Klucel (hydroxypropylcellulose) (HPC)) of the same compound?
Its T/C is 103 % of control.

And the T/C (dose: 25.0 mg/kg/injection, schedule: Q01DX009 (ip), vehicle: Klucel (hydroxypropylcellulose) (HPC))?
Its T/C is 88 % of control.

What about the T/C (dose: 50.0 mg/kg/injection, schedule: Q01DX009 (ip), vehicle: Klucel (hydroxypropylcellulose) (HPC)) of the same compound?
The T/C was 100 % of control.

What about the T/C (dose: 100.0 mg/kg/injection, schedule: Q01DX009 (ip), vehicle: Klucel (hydroxypropylcellulose) (HPC)) of the same compound?
The T/C was 95 % of control.

What about the T/C (dose: 100.0 mg/kg/injection, schedule: Q04DX003 (ip), vehicle: Klucel (hydroxypropylcellulose) (HPC)) of the same compound?
Its T/C is 109 % of control.

What about the T/C (dose: 200.0 mg/kg/injection, schedule: Q01DX009 (ip), vehicle: Klucel (hydroxypropylcellulose) (HPC)) of the same compound?
Its T/C is 100 % of control.

What about the T/C (dose: 200.0 mg/kg/injection, schedule: Q04DX003 (ip), vehicle: Klucel (hydroxypropylcellulose) (HPC)) of the same compound?
The T/C was 109 % of control.

And the T/C (dose: 400.0 mg/kg/injection, schedule: Q04DX003 (ip), vehicle: Klucel (hydroxypropylcellulose) (HPC))?
Its T/C is 86 % of control.

For `CCOC(=O)C(Cc1ccc(N(CCCl)CCCl)cc1)NC(=O)C(Cc1ccc([N+](=O)[O-])cc1)NC(C)=O` (configuration not stated), which T/C (dose: 5.0 mg/kg/injection, schedule: Q04DX003 (ip), vehicle: other) is on record?
The T/C was 105 % of control.

And the T/C (dose: 10.0 mg/kg/injection, schedule: Q04DX003 (ip), vehicle: other)?
Its T/C is 96 % of control.

And the T/C (dose: 20.0 mg/kg/injection, schedule: Q04DX003 (ip), vehicle: other)?
The T/C was 99 % of control.

And the T/C (dose: 40.0 mg/kg/injection, schedule: Q04DX003 (ip), vehicle: other)?
The T/C was 99 % of control.

With `O=C(/C=C/c1ccc(OCc2ccccc2)cc1)c1cccc(Cl)c1` as the compound, how does the T/C (dose: 50.0 mg/kg/injection, schedule: Q01DX009 (ip), vehicle: saline with Tween-80) read?
Its T/C is 105 % of control.

And the T/C (dose: 100.0 mg/kg/injection, schedule: Q01DX009 (ip), vehicle: saline with Tween-80)?
The T/C was 96 % of control.

And the T/C (dose: 200.0 mg/kg/injection, schedule: Q01DX009 (ip), vehicle: saline with Tween-80)?
Its T/C is 89 % of control.

How did the T/C (dose: 0.4 mg/kg/injection, schedule: Q01DX010 (ip), vehicle: saline) turn out when `CC1CC(C)(O)CC(C(O)CC2CC(=O)NC(=O)C2)C1=O` (configuration not stated) was run?
The T/C was 181 % of control.

What about the T/C (dose: 0.5 mg/kg/injection, schedule: Q04DX003 (ip), vehicle: saline) of the same compound?
The T/C was 111 % of control.

What about the T/C (dose: 0.8 mg/kg/injection, schedule: Q01DX010 (ip), vehicle: saline) of the same compound?
Its T/C is 90 % of control.

And the T/C (dose: 1.2 mg/kg/injection, schedule: Q04DX003 (ip), vehicle: saline)?
The T/C was 123 % of control.

And the T/C (dose: 1.3 mg/kg/injection, schedule: Q01DX001 (sc), vehicle: saline)?
Its T/C is 118 % of control.

What about the T/C (dose: 2.0 mg/kg/injection, schedule: Q04DX003 (ip), vehicle: saline) of the same compound?
Its T/C is 161 % of control.

And the T/C (dose: 2.16 mg/kg/injection, schedule: Q01DX001 (ip), vehicle: saline)?
The T/C was 116 % of control.

What about the T/C (dose: 2.16 mg/kg/injection, schedule: Q01DX001 (sc), vehicle: saline) of the same compound?
Its T/C is 119 % of control.

What about the T/C (dose: 3.33 mg/kg/injection, schedule: Q04DX003 (ip), vehicle: saline) of the same compound?
Its T/C is 92 % of control.

And the T/C (dose: 3.6 mg/kg/injection, schedule: Q01DX001 (ip), vehicle: saline)?
Its T/C is 114 % of control.

What about the T/C (dose: 3.6 mg/kg/injection, schedule: Q01DX001 (sc), vehicle: saline) of the same compound?
Its T/C is 118 % of control.

And the T/C (dose: 3.6 mg/kg/injection, schedule: Q04DX003 (ip), vehicle: saline)?
The T/C was 107 % of control.

And the T/C (dose: 6.0 mg/kg/injection, schedule: Q01DX001 (ip), vehicle: saline)?
The T/C was 116 % of control.

What about the T/C (dose: 6.0 mg/kg/injection, schedule: Q01DX001 (sc), vehicle: saline) of the same compound?
The T/C was 113 % of control.

And the T/C (dose: 10.0 mg/kg/injection, schedule: Q01DX001 (sc), vehicle: saline)?
Its T/C is 113 % of control.

What about the T/C (dose: 288.0 micrograms/kg/injection, schedule: Q01DX009 (ip), vehicle: saline) of the same compound?
The T/C was 155 % of control and 170 % of control.

And the T/C (dose: 467.0 micrograms/kg/injection, schedule: Q04DX003 (sc), vehicle: saline)?
The T/C was 116 % of control.

What about the T/C (dose: 480.0 micrograms/kg/injection, schedule: Q01DX009 (ip), vehicle: saline) of the same compound?
Its T/C is 177 % of control.

What about the T/C (dose: 778.0 micrograms/kg/injection, schedule: Q04DX003 (ip), vehicle: saline) of the same compound?
Its T/C is 119 % of control.

What about the T/C (dose: 778.0 micrograms/kg/injection, schedule: Q04DX003 (sc), vehicle: saline) of the same compound?
Its T/C is 123 % of control.

And the T/C (dose: 800.0 micrograms/kg/injection, schedule: Q01DX009 (ip), vehicle: saline)?
The T/C was 109 % of control.

And the T/C (dose: 3600.0 micrograms/kg/injection, schedule: Q04DX003 (ip), vehicle: saline)?
The T/C was 92 % of control.

Which T/C (dose: 25.0 mg/kg/injection, schedule: Q04DX003 (ip), vehicle: saline with Tween-80) does the source give for `Cc1ccc2c(c1)NC(c1ccc(C(N)=S)cc1)N2` (configuration not stated) here?
The T/C was 97 % of control.

What about the T/C (dose: 50.0 mg/kg/injection, schedule: Q04DX003 (ip), vehicle: saline with Tween-80) of the same compound?
Its T/C is 88 % of control.

And the T/C (dose: 100.0 mg/kg/injection, schedule: Q04DX003 (ip), vehicle: saline with Tween-80)?
Its T/C is 87 % of control.

How did the T/C (dose: 6.25 mg/kg/injection, schedule: Q01DX009 (ip), vehicle: gum acacia) turn out when `NC(=O)NN=C(CS)CS` was run?
Its T/C is 101 % of control.

And the T/C (dose: 12.5 mg/kg/injection, schedule: Q01DX009 (ip), vehicle: gum acacia)?
The T/C was 100 % of control.

And the T/C (dose: 25.0 mg/kg/injection, schedule: Q01DX009 (ip), vehicle: gum acacia)?
The T/C was 102 % of control.

And the T/C (dose: 50.0 mg/kg/injection, schedule: Q01DX009 (ip), vehicle: gum acacia)?
The T/C was 100 % of control.
